# Assay: Drug loading of CHEAP formulation
# Conditions: hydrophobic model drugs loaded into CHEAP
# Method: The intracellular delivery of hydrophobic drugs was conducted using a CHEAP formulation vehicle. Loading, as well as stability, of the drug-loaded CHEAP formulations was investigated on three different hydrophobic drugs. Rosiglitazone (RSG), Paclitaxel (PAX), and Tamoxifen (TAM) were used as model drugs for loading (FIG. 6A).
row,SMILES,binding affinity towards the CHEAP formulation
1,"CC(=O)O[C@H]1C(=O)[C@@]2(C)[C@H]([C@H](OC(=O)c3ccccc3)[C@]3(O)C[C@H](OC(=O)[C@H](O)[C@@H](NC(=O)c4ccccc4)c4ccccc4)C(C)=C1C3(C)C)[C@]1(OC(C)=O)CO[C@@H]1C[C@@H]2O [PAX, Paclitaxel]",high binding affinity
2,"CC/C(=C(\c1ccccc1)c1ccc(OCCN(C)C)cc1)c1ccccc1 [TAM, Tamoxifen]",high binding affinity

# Source: patent publication US20130272963A1, “Cholesterol Efflux Assay Probe Formulations, Methods of Making and Using” (THE OHIO STATE UNIVERSITY, priority 2012, published 2013)
